Data on three compounds can be found in US4434101A, “Inhibitors of SRS-synthesis” (Hoffmann-La Roche Inc., priority 1981, dated 1984).

This test deals with SRS-A synthesis in rat peritoneal cells. As to the kind of experiment: Inhibition of the In Vitro Synthesis of SRS-A in Rat Peritoneal Cells. It counts as cell-based, rat (male Sprague-Dawley). The note with it: for inhibition at 10 µM: mean percent inhibition of ionophore A23187-induced SRS-A synthesis, 10 min preincubation at 37° C., p<0.001, SRS-A quantitated by guinea pig ileum bioassay, read-out: % Inhibition at 10μ M; for IC50: from plot of mean percent inhibition versus drug concentration, ionophore A23187-induced SRS-A synthesis. An excerpt: Inhibition of the In Vitro Synthesis of SRS-A in Rat Peritoneal Cells
To study the effect of drugs on SRS-A synthesis in rat peritoneal cells, these cells (including mast cells, monocytes, eosinophils and neutrophils)were isolated from male Sprague-Dawley rats (Charles River Laboratories) weighing 180-220 g by the lavage procedure described by Herzig, D. G. and Dusner, E. J. Journal of Pharmacology and Experimental Therapeutics, 194, 457-460 (1975) with the exception that Hanks balanced salt solution used in these experiments was adjusted to pH 6.9 with 5% (V/V) of 0.1 M aqueous phosphate buffer and contained 50 mg/ml sodium heparin. After removal from the peritoneal cavity of rats, the cells were subsequently isolated by centrifugation at 400×gravity for 10 minutes at 4° C. and resuspended to a concentration of about 2,000,000 cells per ml in Hanks buffer.
Samples for evaluation were prepared by adding various concentrations of test drugs to 2 ml aliquots of the resuspended cells in Hanks buffer. The 2 ml samples used for control contained 2 ml aliquots of resuspended cells in Hanks buffer without drugs. All of the above samples (2 ml final volume) were preincubated at 37° C. for 10 minutes in the presence of varying concentrations of test drug prior to challenge with […] ionophore A23187. This ionophore is disclosed in Burka and Flower, Br. J. Pharmacology 65: 35-41 (1979). Antibiotic A23187 was used as a probe for the study of calcium and function in biological systems. After ionophore challenge, SRS-A was synthesized in the samples by the cells for 10 minutes (at 37° C.) after which this synthesis was terminated by placing the samples in a boiling water bath for 10 minutes followed by centrifugation at 2,000×g (10 minutes) at 4° C. to remove coagulated protein and cellular debris. The SRS-A present in the resulting supernatants was quantitated by a bioassay using a guinea pig ileum as described in Orange, and Austen, Adv. Immunol, 10: 105-144 (1969). For this bioassay, a 1.5 cm segment of ileum was removed from animals weighing 300 to 400 g and resuspended in an organ bath containing 10 ml of Tyrodes solution with 10^-6 M atropine sulfate and 10^-6 M pyrilamine maleate. The bath was maintained at 37° C. and aereated with a mixture of 95% O2 and 5% CO2. The concentration of SRS-A in the experimental samples was determined by a comparison of isotonic contraction responses elicited by the samples with those obtained with varying amounts of an SRS-A standard solution prepared from chopped guinea pig lung as disclosed in Hitchcock, M. J. Pharmacol. Exp. Ther. 207: 630-640 (1978) and quantitated by the procedures of Orange, R. R. and Austen, K. F. Adv. Immunol. 10: 105-144 (1969) against histamine (1 unit of SRS-A being that amount which gives a contractie response similar to that of […] of histamine). In the absence of drug, the ionophore A23187-induced SRS-A synthesis varied between 40 to 50 units of SRS-A per 10^6 cells. In the presence of increasing concentrations of test drug, there was a concentration-related decrease in SRS-A synthesis.
The mean percent inhibition [formula] at each concentration of the various test drugs was calculated. The concentration of test drug which inhibits the synthesis of SRS-A by 50% (IC50) was determined for each test drug from a plot of the mean percent inhibition versus drug concentration. The difference of units of SRS-A in the test sample used in the fraction given above was obtained by subtracting the units of SRS-A in the control from the actual measurement of the units of SRS-A in the sample.

As usually defined, the inhibition is the share of the control response that was lost under treatment. Broadly, the IC50 is the point on the concentration scale where inhibition reaches its midpoint. Read a high IC50 as weaker potency. As to `CCCCCCCCCCC/C=C\C(C)(C)/C=C\CCCC(=O)O` [(Z,Z)-7,7-dimethyl-5,8-eicosadienoic acid], the inhibition at 10 µM amounted to 100% and the IC50 was under 10 µM.
Consider `CCCCCCCC/C=C\C/C=C\C(C)(C)/C=C\CCCC(=O)O` [(all Z)-7,7-dimethyl-5,8,11-eicosatrienoic acid], for which the inhibition at 10 µM amounted to 100% and the IC50 was under 10 µM.
On to `CCCCC/C=C\C/C=C\C/C=C\C(C)(C)/C=C\CCCC(=O)O` [(all-Z)-7,7-dimethyleicosa-5,8,11,14-tetraenoic acid], for which the inhibition at 10 µM is 100% and the 50% inhibitory concentration (IC50) was 1 to 3 µM.
